Test system: B16F0 melanoma cells
Experiment: Transfection activity in B16F0 melanoma cells
Format: cell-based
Settings: in the absence of helper lipid DOPE
Source text: FIG. 2 Transfection activity of 1,3lb3 and other commercially available cationic lipids in B16F0 melanoma cells. Lif/d stands for Lipofectamine/DOPE. The data are the average of six wells two independent experiments (n=3×2).
FIG. 3 Transfection activity of 1,3lb3 (in the absence of DOPE) -a dipalmitoyl analogue with fluid lamellar phases at physiological pH and temperature-against B16F0 tumor melanoma cells. The plasmid DNA consisted of an EGFP reporter gene driven by the SV40 early promoter, cloned into a pUC21 vector (CloneTech Labs).
FIG. 8 Transfection activity as tested by X-gal of cationic lipids against B16F0 melanoma cells in the absence of serum. The (+/−) ratio is fixed to 2. A. lb1 B. lb2 C. lb3 D. lb4 E. lb5

CCCCCCCCCCCCCCCC(=O)NCC(CNC(=O)CCCCCCCCCCCCCCC)OC(=O)N(CCN(C)C)CCN(C)C [13lb3, N,N′-dihexadecanoyl-1,3-diaminopropyl-2-carbamoyl-[bis-(2-dimethylaminoethane)]]
Transfection activity: efficient transfection activity
